According to patent US20240217968A1, “PHARMACEUTICAL COMPOUND” (DUKE STREET BIO LIMITED, priority 2021, published 2024):
pIC50: −log10 of the molar value.

Columns and labels:
[1] = biological target: T1, recombinant human Flag-tagged PARP7 (amino acids 456-657) (Homo sapiens, UniProt Q7Z3E1); assay: PARP7 biochemical DELFIA assay (auto-MARylation); conditions: DELFIA readout, IC50 class
T1 construct: recombinant human Flag-tagged PARP7 (amino acids 456-657)
T1 sequence (Q7Z3E1 456-657): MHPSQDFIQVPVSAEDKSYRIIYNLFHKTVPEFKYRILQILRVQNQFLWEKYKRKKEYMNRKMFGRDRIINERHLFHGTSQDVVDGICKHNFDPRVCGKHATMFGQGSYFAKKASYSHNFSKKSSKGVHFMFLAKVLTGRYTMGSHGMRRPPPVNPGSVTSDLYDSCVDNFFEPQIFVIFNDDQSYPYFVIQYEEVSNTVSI
In short: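 Readout is DELFIA time-resolved Eu fluorescence (Ex337 nm, Em620 nm) of biotin-ADP-ribose on immobilised Flag-tagged PARP7 456-657. Enzyme (12.5-37.5 nM as added) sat 30 min with compound before biotin-NAD+ (15 μM solution, pH 7.5 HEPES buffer) started 2-3 h room-temperature self-modification, stopped with excess NAD+.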

[2] = test system: CT26 colorectal cancer cells; assay: Induction of IFNβ in cancer cell supernatants (mouse IFNβ ELISA), CT26; assay type: cell-based, murine; conditions: 10 μM compound 177 alone or in combination with chemotherapeutic agents, 24 hours, FIG. 1
Procedure: (§1) Selected compounds were also tested for their ability to induce type I interferon (interferon β, IFNβ) production in cancer cells as a cell-based measure of PARP7 inhibition and its effects on stimulating the STING pathway signalling. […] Such data highlight the therapeutic utility of combining PARP7 inhibitors with chemotherapy or other agents that can induce aberrant cytosolic nucleic acids in order to further enhance an anti-tumour immune response.
(§2) CT26 and MC38 cells were seeded in 96-well microplates each at a density of 30,000 cells per well. Following overnight incubation, cells were treated with either DMSO, 10 μM compound 177, or various chemotherapeutic agents (final DMSO concentration of 0.2% v/v). Cells were also treated with 10 μM compound 177 in combination with various chemotherapeutic agents. After 24 hours, IFNβ was measured from cell supernatants using a sandwich enzyme linked immunosorbent assay (ELISA) assay kit (PBL Assay Sciences, catalogue number 42410-2) according to manufacturer's instructions.

[3] = test system: MC38 colorectal cancer cells; assay: Induction of IFNβ in cancer cell supernatants (mouse IFNβ ELISA), MC38; assay type: cell-based, murine; conditions: 10 μM compound 177 alone or in combination with chemotherapeutic agents, 24 hours, FIG. 1
Procedure: as §1, §2

[4] = test system: cancer cell lines with high baseline expression of interferon stimulated genes; conditions: cited from earlier work
[5] = test system: type I interferon responses; conditions: both in vitro and in vivo; cited from earlier work
tumour = conditions: animal models; cited from earlier work

Structure (SMILES) | pIC50 [1] | also measured
CC(COCCC(=O)N1CCN(c2ncc(C(F)(F)F)cn2)CC1)n1nc(C(F)(F)F)c2c(=O)[nH]ncc21 (single isomer, unassigned) [Compound 177, 1-(1-(3-oxo-3-(4-(5-(trifluoromethyl)pyrimidin-2-yl)piperazin-1-yl)propoxy)propan-2-yl)-3-(trifluoromethyl)-1,5-dihydro-4H-pyrazolo[3,4-d]pyridazin-4-one] | ≥ 7.00 | induction of IFNβ in cell supernatants [2]: induction of IFNβ; induction of IFNβ in cell supernatants [3]: induction of IFNβ
CC(COCCC(=O)N1CCN(c2ncc(C(C)(F)F)cn2)CC1)n1cc(C(F)(F)F)c2c(=O)[nH]ncc21 (centres unmarked) [Compound 481] | ≥ 7.00 | –
CC(COCCC(=O)N1CCN(c2ccc(C(C)(F)F)cn2)CC1)n1cc(C(F)(F)F)c2c(=O)[nH]ncc21 (centres unmarked) [Compound 483] | ≥ 7.00 | –
N#Cc1cnc(N2CCN(C(=O)CCOCCn3cc(C(F)(F)F)c4c(=O)[nH]ncc43)CC2)s1 [Compound 487] | ≥ 7.00 | –
O=C(CCOCCn1nc(C(F)(F)F)c2c(=O)[nH]ncc21)N1CCN(c2ncc(C(F)(F)F)[nH]2)CC1 [Compound 488] | ≥ 7.00 | –
CC(COCCC(=O)N1CCN(c2cc(C(F)(F)F)[nH]n2)CC1)n1nc(C(F)(F)F)c2c(=O)[nH]ncc21 (centres unmarked) [Compound 489] | ≥ 7.00 | –
O=C(OCC1CC1Cn1nc(C(F)(F)F)c2c(=O)[nH]ncc21)N1CCN(c2ncc(C(F)(F)F)cn2)CC1 (centres unmarked) [Compound 492] | ≥ 7.00 | –
O=C(OCC1CC1Cn1nc(C(F)(F)F)c2c(=O)[nH]ncc21)N1CCN(c2ncc(C(F)(F)F)cn2)CC1 (centres unmarked) [Compound 493] | ≥ 7.00 | –
N#Cc1cnc(N2CCN(C(=O)CCOCCn3nc(C(F)(F)F)c4c(=O)[nH]ncc43)CC2)s1 [Compound 502] | ≥ 7.00 | –
C[C@@H](COCCC(=O)N1CCN(c2ncc(C(F)(F)F)cn2)CC1)Nc1cn[nH]c(=O)c1C(F)(F)F [RBN-2397] | – | inhibition of proliferation [4]: potently inhibited proliferation; type I interferon responses [5]: restored type I interferon responses; tumour regression and specific anti-tumour immunity (tumour): tumour regression
